Experimental data reported in patent US10479780B2, “Aminopyrazole derivatives” (Chugai Seiyaku Kabushiki Kaisha, priority 2015, dated 2019).
Where two headings read alike, the source gives them in different places.

What was measured:
Format in all cases: biochemical
human Yes1 enzyme = molecular target: T1, human Yes1 enzyme (Homo sapiens, UniProt P07947); test: Yes1 enzyme inhibitory activity (time-resolved fluorometry, biotinylated peptide phosphorylation); details: read-out: YES_IC50
T1 construct: made in house
Protocol: (§1) 1. Yes1 Enzyme Inhibitory Activity Yes1 inhibitory activity was determined based on activity of inhibiting phosphorylation reaction of a biotinylated peptide (EGPWLEEEEEAYGWMDF) using a human Yes1 enzyme prepared using a baculovirus expression system. The phosphorylated biotinylated peptide was detected by time-resolved fluorometry using an anti-phosphorylated tyrosine antibody conjugated to europium cryptate, and streptavidin conjugated to XL665, an allophycocyanin derivative. The 50% inhibitory concentration (IC50) was calculated from the inhibition rate relative to the control group without containing the test substance.

human Src enzyme = molecular target: T2, human Src enzyme (Homo sapiens, UniProt P12931); test: Src enzyme inhibitory activity (time-resolved fluorometry, biotinylated peptide phosphorylation); details: biotinylated peptide phosphorylation, read-out: SRC_IC50
T2 construct: purchased Carna Biosciences, Inc. 08-173
Protocol: as §1, with “2. Src” for “1. Yes1”, “Src” for “Yes1”, “(manufactured by Carna Biosciences, Inc., cat 08-173).” for “prepared using a baculovirus expression system.”

human Lck enzyme = molecular target: T3, human Lck enzyme (Homo sapiens, UniProt P06239); test: Lck enzyme inhibitory activity (time-resolved fluorometry, biotinylated peptide phosphorylation); details: read-out: LCK_IC50
T3 construct: purchased Carna Biosciences, Inc. 08-170
Protocol: as §1, with “3. Lck” for “1. Yes1”, “Lck” for “Yes1”, “(manufactured by Carna Biosciences, Inc., cat 08-170).” for “prepared using a baculovirus expression system.”

[1] = biotinylated peptide phosphorylation

T1 sequence (P07947 whole entry): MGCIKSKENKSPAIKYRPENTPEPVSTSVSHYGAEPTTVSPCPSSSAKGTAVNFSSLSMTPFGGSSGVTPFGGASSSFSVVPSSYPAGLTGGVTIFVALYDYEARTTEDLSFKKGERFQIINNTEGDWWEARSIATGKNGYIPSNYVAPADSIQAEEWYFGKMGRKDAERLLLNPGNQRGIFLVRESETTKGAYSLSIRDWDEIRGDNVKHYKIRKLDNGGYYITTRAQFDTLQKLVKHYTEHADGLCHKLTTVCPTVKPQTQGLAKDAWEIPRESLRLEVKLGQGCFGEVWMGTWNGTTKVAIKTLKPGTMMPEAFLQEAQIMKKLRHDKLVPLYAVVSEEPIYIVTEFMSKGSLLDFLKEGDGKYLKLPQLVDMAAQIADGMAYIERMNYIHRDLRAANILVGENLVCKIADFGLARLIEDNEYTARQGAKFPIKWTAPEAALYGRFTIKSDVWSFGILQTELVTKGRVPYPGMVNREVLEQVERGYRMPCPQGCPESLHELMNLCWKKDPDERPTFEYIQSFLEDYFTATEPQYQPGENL
T3 sequence (P06239 whole entry): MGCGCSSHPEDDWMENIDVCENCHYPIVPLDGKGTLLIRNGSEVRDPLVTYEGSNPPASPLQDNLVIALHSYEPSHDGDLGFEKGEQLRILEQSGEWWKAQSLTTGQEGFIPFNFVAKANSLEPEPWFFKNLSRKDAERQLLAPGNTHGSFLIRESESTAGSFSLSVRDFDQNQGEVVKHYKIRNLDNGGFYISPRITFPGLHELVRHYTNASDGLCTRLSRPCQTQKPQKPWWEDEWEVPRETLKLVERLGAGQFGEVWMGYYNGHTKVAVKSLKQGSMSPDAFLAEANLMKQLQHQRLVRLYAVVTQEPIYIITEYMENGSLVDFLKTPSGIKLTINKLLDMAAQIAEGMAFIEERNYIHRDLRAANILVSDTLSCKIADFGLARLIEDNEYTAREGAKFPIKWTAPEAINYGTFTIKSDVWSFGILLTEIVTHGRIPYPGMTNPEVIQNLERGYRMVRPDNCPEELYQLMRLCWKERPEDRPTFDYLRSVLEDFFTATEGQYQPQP
T2 sequence (P12931 whole entry): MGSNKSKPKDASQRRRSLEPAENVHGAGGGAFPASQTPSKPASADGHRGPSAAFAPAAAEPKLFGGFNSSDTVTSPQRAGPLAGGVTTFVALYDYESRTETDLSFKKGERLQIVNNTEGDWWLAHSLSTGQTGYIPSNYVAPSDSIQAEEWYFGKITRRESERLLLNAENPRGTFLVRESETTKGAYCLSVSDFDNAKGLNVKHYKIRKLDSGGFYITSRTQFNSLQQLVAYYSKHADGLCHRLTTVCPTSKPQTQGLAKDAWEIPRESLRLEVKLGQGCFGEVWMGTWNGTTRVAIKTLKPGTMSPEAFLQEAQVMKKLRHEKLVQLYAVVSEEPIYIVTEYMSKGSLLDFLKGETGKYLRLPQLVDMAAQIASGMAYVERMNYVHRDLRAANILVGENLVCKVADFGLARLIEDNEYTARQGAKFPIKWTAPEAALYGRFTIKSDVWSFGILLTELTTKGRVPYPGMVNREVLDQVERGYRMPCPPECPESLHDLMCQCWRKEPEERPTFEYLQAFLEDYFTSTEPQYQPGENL

Row | SMILES | IC50 (human Yes1 enzyme; [1]) [nM] | IC50 (human Src enzyme) [nM] | IC50 (human Lck enzyme; [1]) [nM] | IC50 (human Yes1 enzyme) [nM] | IC50 (human Lck enzyme) [nM]
1 | Cc1cc(-n2ncc(C(=O)c3cc4cc(OCC(F)F)c(Br)cc4[nH]3)c2N)ccc1Oc1ccccc1F [Example 5-1-150, [5-amino-1-[4-(2-fluorophenoxy)-3-methylphenyl]pyrazol-4-yl]-[6-bromo-5-(2,2-difluoroethoxy)-1H-indol-2-yl]methanone] |  |  |  | 4.8 | 320
2 | Cc1cc(-n2ncc(C(=O)c3cc4cc(OC(F)F)c(Br)cc4[nH]3)c2N)ccc1Oc1ccccc1F [Example 5-1-152, [5-amino-1-[4-(2-fluorophenoxy)-3-methylphenyl]pyrazol-4-yl]-[6-bromo-5-(difluoromethoxy)-1H-indol-2-yl]methanone] |  |  |  | 7.3 | 7800
3 | Cc1cc(-n2ncc(C(=O)c3cc4cc(OCC(F)F)c(-c5cccs5)cc4[nH]3)c2N)ccc1Oc1ccccc1F [Example 5-1-256, [5-amino-1-[4-(2-fluorophenoxy)-3-methylphenyl]pyrazol-4-yl]-[5-(2,2-difluoroethoxy)-6-thiophen-2-yl-1H-indol-2-yl] methanone] |  |  |  | 120 | 
4 | Cc1cc(-n2ncc(C(=O)c3cc4cc(OC5CCN(C6CS(=O)(=O)C6)CC5)c(-c5ccccc5Cl)cc4[nH]3)c2N)ccc1Oc1ccccc1F [Example 5-1-289, [5-amino-1-[4-(2-fluorophenoxy)-3-methylphenyl]pyrazol-4-yl]-[6-(2-chlorophenyl)-5-[1-(1,1-dioxothietan-3-yl)piperidin-4-yl]oxy-1H-indol-2-yl]methanone] |  |  |  | 3.4 | 400
5 | Cc1cc(-n2ncc(C(=O)c3cc4cc(OC5CCN(C6CS(=O)(=O)C6)CC5)c(-c5ccccc5C)cc4[nH]3)c2N)ccc1Oc1ccccc1F [Example 5-1-336, [5-amino-1-[4-(2-fluorophenoxy)-3-methylphenyl]pyrazol-4-yl]-[5-[1-(1,1-dioxothietan-3-yl)piperidin-4-yl]oxy-6-(2-methylphenyl)-1H-indol-2-yl]methanone] |  |  |  | 4.2 | 240
6 | Cc1cc(-n2ncc(C(=O)c3cc4cc(OC5CCN(C6CS(=O)(=O)C6)CC5)c(-c5ccccc5C(F)(F)F)cc4[nH]3)c2N)ccc1Oc1ccccc1F [Example 5-1-386, (5-amino-1-(4-(2-fluorophenoxy)-3-methylphenyl)-1H-pyrazol-4-yl)(5-((1-(1,1-dioxidothietan-3-yl)piperidin-4-yl)oxy)-6-(2-(trifluoromethyl)phenyl)-1H-indol-2-yl)methanone] |  |  |  | 3.9 | 1000
7 | Cc1cc(-n2ncc(C(=O)c3cc4cc(C)c(N5C(=O)NC6(CCCCC6)C5=O)cc4[nH]3)c2N)ccc1Oc1ccccc1F [Example 5-1-470, 3-[2-[5-amino-1-[4-(2-fluorophenoxy)-3-methylphenyl]pyrazole-4-carbonyl]-5-methyl-1H-indol-6-yl]-1,3-diazaspiro[4.5]decane-2,4-dione] | 31 |  | 870 |  | 
8 | Cc1cc(-n2ncc(C(=O)c3cc4cc(C)c(N5C(=O)NC6(CCN(C(=O)OC(C)(C)C)CC6)C5=O)cc4[nH]3)c2N)ccc1Oc1ccccc1F [Example 5-1-471, tert-Butyl 3-[2-[5-amino-1-[4-(2-fluorophenoxy)-3-methylphenyl]pyrazole-4-carbonyl]-5-methyl-1H-indol-6-yl]-2,4-dioxo-1,3,8-triazaspiro[4.5]decane-8-carboxylate] | 81 |  | 980 |  | 
9 | Cc1cc(-n2ncc(C(=O)c3cc4cc(C)c(N5C(=O)NC6(CCCC6)C5=O)cc4[nH]3)c2N)ccc1Oc1ccccc1F [Example 5-1-474, 3-[2-[5-amino-1-[4-(2-fluorophenoxy)-3-methylphenyl]pyrazole-4-carbonyl]-5-methyl-1H-indol-6-yl]-1,3-diazaspiro[4.4]nonane-2,4-dione] | 27 |  | 650 |  | 

Second part, the compound after the results:

Row | IC50 (human Yes1 enzyme; [1]) [nM] | IC50 (human Src enzyme) [nM] | IC50 (human Lck enzyme; [1]) [nM] | IC50 (human Yes1 enzyme) [nM] | IC50 (human Lck enzyme) [nM] | SMILES
10 | 1.2 | 45 | 8.2 |  |  | Cc1cc2cc(C(=O)c3cnn(-c4cnc(Oc5c(F)cccc5F)cc4C)c3N)[nH]c2cc1NS(C)(=O)=O [Example 4-1-001, N-{2-{5-amino-1-[6-(2,6-difluorophenoxy)-4-methylpyridin-3-yl]pyrazole-4-carbonyl}-5-methyl-1H-indol-6-yl}methanesulfonamide]
11 | 0.52 | 21 | 7.6 |  |  | Cc1cc(Oc2ccccc2F)ccc1-n1ncc(C(=O)c2cc3cc(F)c(NS(C)(=O)=O)cc3[nH]2)c1N [Example 4-1-002, N-[2-[5-amino-1-[4-(2-fluorophenoxy)-2-methylphenyl]pyrazole-4-carbonyl]-5-fluoro-1H-indol-6-yl]methanesulfonamide]
12 | 1.2 | 55 | 14 |  |  | CS(=O)(=O)Nc1cc2[nH]c(C(=O)c3cnn(-c4ccc(Oc5ccccn5)cc4Cl)c3N)cc2cc1F [Example 4-1-003, N-[2-[5-amino-1-(2-chloro-4-pyridin-2-yloxyphenyl)pyrazole-4-carbonyl]-5-fluoro-1H-indol-6-yl]methanesulfonamide]
13 |  |  |  | 93 | 2000 | Cc1cc(-n2ncc(C(=O)c3cc4cc(F)c(NS(C)(=O)=O)cc4[nH]3)c2N)cnc1Oc1ccccc1Cl [Example 5-1-041, N-[2-[5-amino-1-[6-(2-chlorophenoxy)-5-methylpyridin-3-yl]pyrazole-4-carbonyl]-5-fluoro-1H-indol-6-yl]methanesulfonamide]
14 |  |  |  | 270 | 1900 | Cc1cc(-n2ncc(C(=O)c3cc4cc(F)c(NS(C)(=O)=O)cc4[nH]3)c2N)cnc1Oc1cccc(Cl)c1 [Example 5-1-042, N-[2-[5-amino-1-[6-(3-chlorophenoxy)-5-methylpyridin-3-yl]pyrazole-4-carbonyl]-5-fluoro-1H-indol-6-yl]methanesulfonamide]
15 |  |  |  | 38 | 2600 | Cc1cc(-n2ncc(C(=O)c3cc4cc(F)c(NS(C)(=O)=O)cc4[nH]3)c2N)cnc1Oc1c(F)cccc1Cl [Example 5-1-043, N-[2-[5-amino-1-[6-(2-chloro-6-fluorophenoxy)-5-methylpyridin-3-yl]pyrazole-4-carbonyl]-5-fluoro-1H-indol-6-yl] methanesulfonamide]
16 |  |  |  | 52 | 2700 | Cc1cc(-n2ncc(C(=O)c3cc4cc(F)c(NS(C)(=O)=O)cc4[nH]3)c2N)cnc1Oc1cccc(F)c1F [Example 5-1-044, N-[2-[5-amino-1-[6-(2,3-difluorophenoxy)-5-methylpyridin-3-yl]pyrazole-4-carbonyl]-5-fluoro-1H-indol-6-yl]methanesulfonamide]
17 |  |  |  | 210 | 4400 | Cc1cc(-n2ncc(C(=O)c3cc4cc(F)c(NS(C)(=O)=O)cc4[nH]3)c2N)cnc1Oc1cc(F)cc(F)c1 [Example 5-1-045, N-[2-[5-amino-1-[6-(3,5-difluorophenoxy)-5-methylpyridin-3-yl]pyrazole-4-carbonyl]-5-fluoro-1H-indol-6-yl]methanesulfonamide]
18 |  |  |  | 9.1 |  | Cc1cc2cc(C(=O)c3cnn(-c4cc(C)c(Oc5ccccc5F)cc4F)c3N)[nH]c2cc1NS(C)(=O)=O [Example 5-1-206, N-[2-[5-amino-1-[2-fluoro-4-(2-fluorophenoxy)-5-methylphenyl]pyrazole-4-carbonyl]-5-methyl-1H-indol-6-yl]methanesulfonamide]
19 |  |  |  | 26 | 4400 | Cc1cc2cc(C(=O)c3cnn(-c4ccc(Oc5cccc(F)c5)c(C)c4)c3N)[nH]c2cc1NS(C)(=O)=O [Example 5-1-211, N-[2-[5-amino-1-[4-(3-fluorophenoxy)-3-methylphenyl]pyrazole-4-carbonyl]-5-methyl-1H-indol-6-yl]methanesulfonamide]
20 |  |  |  | 26 | 720 | Cc1cc2cc(C(=O)c3cnn(-c4ccc(Oc5ccccc5F)c(C)c4)c3N)[nH]c2cc1NS(C)(=O)=O [Example 5-1-307, N-[2-[5-amino-1-[4-(2-fluorophenoxy)-3-methylphenyl]pyrazole-4-carbonyl]-5-methyl-1H-indol-6-yl]methanesulfonamide]
21 | 40 |  | 710 |  |  | Cc1cc(-n2ncc(C(=O)c3cc4cc(C)c(N5C(=O)NC(C)(C(F)(F)F)C5=O)cc4[nH]3)c2N)ccc1Oc1ccccc1F (stereo not drawn) [Example 5-1-472, 3-[2-[5-amino-1-[4-(2-fluorophenoxy)-3-methylphenyl]pyrazole-4-carbonyl]-5-methyl-1H-indol-6-yl]-5-methyl-5-(trifluoromethyl) imidazolidine-2,4-dione]
22 | 5.3 |  | 3000 |  |  | Cc1cc(-n2ncc(C(=O)c3cc4cc(F)c(NS(=O)(=O)C5CCOCC5)cc4[nH]3)c2N)ccc1Oc1ccccc1F [Example 5-1-493, N-[2-[5-amino-1-[4-(2-fluorophenoxy)-3-methylphenyl]pyrazole-4-carbonyl]-5-fluoro-1H-indol-6-yl]oxane-4-sulfonamide]
